How the values were obtained:
adenovirus type 2 = experiment: antiviral test of Sidewell and Huffman, adenovirus type 2 in HEp-2 cells; type: cell-based; details: HEp-2 target cell
Experimental: The virus rating (VR) of Compound A of this invention when tested in accordance with the method of Sidewell and Huffman (Appl. Microbiol. 22:795-801, 1971) against adenovirus type 2 utilizing HEp-2 as the target cell was greater than 0.2. […] The minimum toxic concentration (MTC) was greater than 320 μg/ml.

feline leukemia virus = experiment: antiviral test of Sidewell and Huffman, feline leukemia virus in 81C cells; type: cell-based, feline leukemia virus (81C feline kidney cell); details: 81C cell line
Experimental: The virus rating (VR) of Compound A of this invention when tested in accordance with the method of […] and Huffman (Appl. Microbiol. 22:795-801, 1971) against adenovirus type 2 utilizing HEp-2 as the target cell was greater than 0.2. […] The minimum toxic concentration (MTC) was greater than 320 μg/ml. The same compound was also tested against feline leukemia virus by the […] and Huffman procedure using the […] cell line as the target. The […] cell is a feline kidney cell transformed with a murine leukemia virus (ras gene +) with the following results. The therapeutic index of the compound which is a measure of the compounds ability to protect the cell against the virus without adversely affecting cell growth was 22.

[1] = test system: T- and B-lymphocytes isolated from mouse spleens; experiment: lymphocyte blastogenesis assay (mouse spleen lymphocytes, C-14 methyl thymidine uptake); type: cell-based; design: LPS 5.0 (lymphocyte blastogenesis) / RPMI (lymphocyte blastogenesis): unit not given here; details: for LPS 5.0 (lymphocyte blastogenesis) / % CHANGE (LPS): LPS 5.0 MG/KG; for % CHANGE (LPS) / % CHANGE (PHA): vs 0 mg/kg; for PHA 10.0 (lymphocyte blastogenesis) / % CHANGE (PHA): PHA 10.0 UG/KG; for RPMI (lymphocyte blastogenesis): media, no mitogen
Source text: One of these tests is the lymphocyte blastogenesis assay which measures the ability of the compound under test to affect DNA synthesis and mitosis of T- and B- lymphocytes isolated from mouse spleens.
Mitogens are substances which stimulate DNA synthesis and mitosis. The mitogens used in these studies were phytohemaglutinin (PHA) which is isolated from the red kidney bean and a lipopolysacharide isolated from Salmonella tythimurium (LPS).
The lymphocyte blastogenesis test is a method to assess the ability of immunocompetent T- or B-cells to respond to mitogens or a specific antigen. It may be performed on lymphocytes obtained from mice treated with immunostimulators in vivo or the entire assay can be performed in vitro. The assay as described below uses minimal doses of polyclonal mitogens to induce blastogenesis (proliferation measured by DNA synthesis), in order to be able to assess the phenomena of amplification.
The lymphocyte blastogenesis test is carried out as follows:
1. Sacrifice two mice/experimental group by cervical dislocation.
2. Immerse mice in a mild disinfectant solution (Povadyne).
3. Remove spleens and place in a sterile 6 well plate containing 5 ml/well of RPMI-1640.
4. Make a single cell suspension by mincing spleens with a sterile toothed forcep.
5. Place cell suspension in a sterile centrifuge tube and allow large clumps to settle for 10 minutes.
6. Remove single cell suspension by pipetting supernatant into another sterile centrifuge tube.
7. Centrifuge cell suspension for 10 mins. at 1100 RPM in GLC-2B.
8. Aseptically remove supernatant and discard.
9. Resuspend cell button in 5 mls of RPMI-1640, and centrifuge. Wash cells in this manner two more times.
10. Resuspend cells in 5 mls of RPMI-1640 containing 10-15% Human AB heat-inactivated (Pel-Freeze, Rogers, AR or BioBee, Boston, MA).
11. Perform viable cell count using 0.25% trypan blue exclusion dye made in physiological isotonic saline. Non-viable cells stain blue.
12. Adjust viable cell concentration to […] in RPMI-1640 containing human AB sera.
13. Aliquot in sextuplicate wells of a 96 well sterile round bottom tissue culture plate with 0.1 ml/well of the various cell suspensions to be tested.
14. Add to above replicate sextuplicate cells selected quantities of mitogen.
15. Include in the experiment a control plate which contains the same cell groups as above, but receive a 0.1 ml of media instead of mitogen.
16. Humidify plate by filling outside wells of plate with media.
17. Incubate plates at […] with 5% CO-2 for 48 hours.
18. After 48 hours all wells receive 0.025 mls of a 0.4 microcurie/ml solution of C-14 methyl thymidine and incubate at 37 C, 5% CO-2 for 18 hours.
19. The cells are harvested using a Brandel M-12 Cell Harvestor (Brandel, Rockfille, MD) onto filter paper discs using phosphate buffered saline at physiological osmolarity. (285-320 mos).
20. The filter paper disks are placed into Packard mini-scintillation vials and allowed to dry for 18 hours.
21. Once dried, the vials are filled with 2 mls of a scintillation cocktail containing 4 liters of scintillation grade toluene, 16.0 g of 2,5-diphenyloxazole (PPO) and 0.4 g of 1,4-Bis (2-(5-Phenyloxazoly) benzene (POPOP).
22. The vials are counted in a LKB 1212 Rackbeta (LKB Instruments, Gaithersburg, MD) Liquid scintillation counter for two minutes/vial.

Substance: <3,3'>-hemiketal-<3,6>-ketal of 2-(1',3'-diketo-4'-cyclopentyl)-2-hydroxy-3-keto-4-dihydroxyethylbutyrolactone [Compound A]
- minimum toxic concentration (MTC) (adenovirus type 2): greater than 320 μg/ml
- ID50 (concentration that causes 50% reduction in virus replication) (adenovirus type 2; adenovirus type 2): 505.19 µg/mL
- virus rating (VR) (adenovirus type 2; adenovirus type 2): greater than 0.2
- MTC (minimum toxic concentration) (feline leukemia virus): 100
- ID50 (concentration in μg./ml that causes 50% reduction in virus replication) (feline leukemia virus; feline leukemia virus): 4.5 µg/mL
- VR (virus rating) (feline leukemia virus; feline leukemia virus, control 0.98): 1.1

Substance: <3,4'>-hemiketal-<3,6>-ketal of 2-(1',4'-diketo-3'-cyclohexyl)-2-hydroxy-3-keto-4-dihydroxyethylbutyrolactone [Compound B]
- LPS 5.0 (lymphocyte blastogenesis) ([1]; 12.5 mg/kg): 7195 ± 90
- % CHANGE (LPS) ([1]; 12.5 mg/kg): +2.2%
- PHA 10.0 (lymphocyte blastogenesis) ([1]; 12.5 mg/kg): 7126 ± 1104
- % CHANGE (PHA) ([1]; 12.5 mg/kg): -3.8%
- RPMI (lymphocyte blastogenesis) ([1]; 12.5 mg/kg): 605 ± 117
- LPS 5.0 (lymphocyte blastogenesis) ([1]; 25 mg/kg): 8580 ± 507
- % CHANGE (LPS) ([1]; 25 mg/kg): +21.9%
- PHA 10.0 (lymphocyte blastogenesis) ([1]; 25 mg/kg): 7563 ± 2053
- % CHANGE (PHA) ([1]; 25 mg/kg): +2.1%
- RPMI (lymphocyte blastogenesis) ([1]; 25 mg/kg): 1392 ± 247
- LPS 5.0 (lymphocyte blastogenesis) ([1]; 50 mg/kg): 6823 ± 1305
- PHA 10.0 (lymphocyte blastogenesis) ([1]; 50 mg/kg): 10218 ± 2630
- % CHANGE (PHA) ([1]; 50 mg/kg): +37.9%
- RPMI (lymphocyte blastogenesis) ([1]; 50 mg/kg): 1041 ± 687
- LPS 5.0 (lymphocyte blastogenesis) ([1]; 100 mg/kg): 8423 ± 351
- % CHANGE (LPS) ([1]; 100 mg/kg): +19.6%
- PHA 10.0 (lymphocyte blastogenesis) ([1]; 100 mg/kg): 9258 ± 1391
- % CHANGE (PHA) ([1]; 100 mg/kg): +24.9%
- RPMI (lymphocyte blastogenesis) ([1]; 100 mg/kg): 705 ± 314
- LPS 5.0 (lymphocyte blastogenesis) ([1]; 200 mg/kg): 8025 ± 1670
- % CHANGE (LPS) ([1]; 200 mg/kg): +14%
- PHA 10.0 (lymphocyte blastogenesis) ([1]; 200 mg/kg): 8111 ± 896
- % CHANGE (PHA) ([1]; 200 mg/kg): +9.4%
- RPMI (lymphocyte blastogenesis) ([1]; 200 mg/kg): 660 ± 354
